Measurements: patent US7205305B2, “Inhibitors of p38” (Vertex Pharmaceuticals Incorporated, priority 1996, dated 2007)

Assays:
[1] = tested on: TNF production in LPS-stimulated PBMCs; assay: Inhibition of TNF production in LPS-stimulated PBMCs ("cell"); type: cell-based, human; details: Homo sapiens, PBMC
Procedure: (§1) Inhibitors were serially diluted in DMSO from a 20 mM stock. At least 6 serial dilutions were prepared. Then 4× inhibitor stocks were prepared by adding 4 μl of an inhibitor dilution to 1 ml of RPMI1640 medium/10% fetal bovine serum. The 4× inhibitor stocks contained inhibitor at concentrations of 80 μM, 32 μM, 12.8 μM, 5.12 μM, 2.048 μM, 0.819 μM, 0.328 μM, 0.131 μM, 0.052 μM, 0.021 μM etc. The 4× inhibitor stocks were pre-warmed at 37° C. until use.
(§2) Fresh human blood buffy cells were separated from other cells in a Vacutainer CPT from Becton & Dickinson (containing 4 ml blood and enough DPBS without Mg^2+/Ca^2+ to fill the tube) by centrifugation at 1500×g for 15 min. Peripheral blood mononuclear cells (PBMCs), located on top of the gradient in the Vacutainer, were removed and washed twice with RPMI1640 medium/10% fetal bovine serum. PBMCs were collected by centrifugation at 500×g for 10 min. The total cell number was determined using a Neubauer Cell Chamber and the cells were adjusted to a concentration of 4.8×10^6 cells/ml in cell culture medium (RPMI1640 supplemented with 10% fetal bovine serum).
(§3) We placed 100 μl of cell suspension or whole blood in each well of a 96-well cell culture plate. Then we added 50 μl of the 4× inhibitor stock to the cells. Finally, we added 50 μl of a lipopolysaccharide (LPS) working stock solution (16 ng/ml in cell culture medium) to give a final concentration of 4 ng/ml LPS in the assay. The total assay volume of the vehicle control was also adjusted to 200 μl by adding 50 μl cell culture medium. The PBMC cells or whole blood were then incubated overnight (for 12–15 hours) at 37° C./5% CO2 in a humidified atmosphere.
(§4) The next day the cells were mixed on a shaker for 3–5 minutes before centrifugation at 500×g for 5 minutes. Cell culture supernatants were harvested and analyzed by ELISA for levels of IL-1b (R & D Systems, Quantikine kits, #DBL50), TNF-α (BioSource, #KHC3012), IL-6 (Endogen, #EH2-IL6) and IL-8 (Endogen, #EH2-IL8) according to the instructions of the manufacturer. The ELISA data were used to generate dose-response curves from which IC50 values were derived.

[2] = tested on: IL-6 production in whole blood; assay: Inhibition of IL-6 production in LPS-stimulated whole blood ("WB"); type: cell-based, human; details: Homo sapiens
Procedure: as §1
(§5) Alternatively, whole blood containing an anti-coagulant was used directly in the assay.
as §3, §4

[3] = tested on: TNF production in whole blood; assay: Inhibition of TNF production in LPS-stimulated whole blood ("WB"); type: cell-based, human; details: Homo sapiens
Procedure: as §1, §5, §3, §4

[4] = tested on: IL-1 production in LPS-stimulated PBMCs; assay: Inhibition of IL-1 production in LPS-stimulated PBMCs ("cell"); type: cell-based, human; details: Homo sapiens, PBMC
Procedure: as §1, §2, §3, §4

[5] = biological target: activated p38 (Homo sapiens, UniProt Q16539); assay: Inhibition of phosphorylation of EGF receptor peptide ("kinase"); type: biochemical; details: inhibition of phosphorylation of EGF receptor peptide by activated p38
Procedure: This assay was carried out in the presence of 10 mM MgCl2, 25 mM β-glycerophosphate, 10% glycerol and 100 mM HEPES buffer at pH 7.6. […] The stock solution was aliquotted into vials. A fixed volume of DMSO or inhibitor in DMSO (final concentration of DMSO in reaction was 5%) was introduced to each vial, mixed and incubated for 15 minutes at room temperature. EGF receptor peptide, […], a phosphoryl acceptor in p38-catalyzed kinase reaction (1), was added to each vial to a final concentration of 200 μM. The kinase reaction was initiated with ATP (100 μM) and the vials were incubated at 30° C. After 30 minutes, the reactions were quenched with equal volume of 10% trifluoroacetic acid (TFA).
The phosphorylated peptide was quantified by HPLC analysis. Separation of phosphorylated peptide from the unphosphorylated peptide was achieved on a reverse phase column (Deltapak, 5 μm, C18 100D, part no. 011795) with a binary gradient of water and acteonitrile, each containing 0.1% TFA.

[6] = tested on: IL-1 production in whole blood; assay: Inhibition of IL-1 production in LPS-stimulated whole blood ("WB"); type: cell-based, human; details: Homo sapiens
Procedure: as §1, §5, §3, §4

Sequence of activated p38 (Q16539 whole entry): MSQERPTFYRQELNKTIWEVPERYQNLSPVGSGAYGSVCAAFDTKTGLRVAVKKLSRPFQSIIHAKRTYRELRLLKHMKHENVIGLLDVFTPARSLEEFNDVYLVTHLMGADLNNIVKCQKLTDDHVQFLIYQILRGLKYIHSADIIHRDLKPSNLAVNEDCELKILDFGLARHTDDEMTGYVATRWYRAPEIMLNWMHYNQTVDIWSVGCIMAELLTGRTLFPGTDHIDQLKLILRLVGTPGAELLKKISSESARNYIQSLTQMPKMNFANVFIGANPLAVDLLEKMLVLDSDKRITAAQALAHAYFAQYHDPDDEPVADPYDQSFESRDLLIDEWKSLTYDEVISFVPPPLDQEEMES

| SMILES | IC50 [1] [nM] | IC50 [2] [nM] | IC50 [3] [nM] | IC50 [4] [nM] | IC50 [5] [nM] | IC50 [6] [nM] |
| --- | --- | --- | --- | --- | --- | --- |
| NC(=O)C(c1cccc(-c2ccccc2)n1)c1c(Cl)cccc1Cl (centres unmarked) [202/301] | 100 to 500 | ≥ 500 | ≥ 500 | 100 to 500 | ≤ 100 | ≥ 500 |
| O=c1ncn2nc(Sc3ccc(F)cc3)ccc2c1-c1c(Cl)cccc1Cl [Compound 12] | 100 to 500 | ≥ 500 | ≥ 500 | 100 to 500 | 100 to 1000 | ≥ 500 |
| Cc1ccccc1Sc1ccc2c(-c3c(Cl)cccc3Cl)c(=O)ncn2n1 [Compound 23] | ≥ 500 | ≥ 500 | ≥ 500 | 100 to 500 | 100 to 1000 | ≥ 500 |
| O=c1ncn2nc(Sc3ccc(F)c(Cl)c3)ccc2c1-c1c(Cl)cccc1Cl [Compound 24] | 100 to 500 |  | ≥ 500 | 100 to 500 | 100 to 1000 | ≥ 500 |
| COC(=O)c1ccccc1Sc1ccc2c(-c3c(Cl)cccc3Cl)c(=O)ncn2n1 [Compound 26] | 100 to 500 | ≥ 500 | ≥ 500 | ≤ 100 | ≥ 1000 | ≥ 500 |
| O=C(O)c1ccccc1Sc1ccc2c(-c3c(Cl)cccc3Cl)c(=O)ncn2n1 [Compound 27] | ≥ 500 | ≥ 500 | ≥ 500 | ≥ 500 | 100 to 1000 | ≥ 500 |
| O=c1ncn2nc(Sc3ccccn3)ccc2c1-c1c(Cl)cccc1Cl [Compound 30] | ≥ 500 |  |  | ≥ 500 | ≥ 1000 | ≥ 500 |
| Cc1ccc(Sc2ccc3c(-c4c(Cl)cccc4Cl)c(=O)ncn3n2)c(C)c1 [Compound 32] | 100 to 500 | ≥ 500 | ≥ 500 | ≥ 500 | 100 to 1000 | ≥ 500 |
| O=c1ncn2nc(Sc3ccccc3O)ccc2c1-c1c(Cl)cccc1Cl [Compound 33] | 100 to 500 | ≥ 500 | ≥ 500 | 100 to 500 | 100 to 1000 | ≥ 500 |
| Nc1cc(F)ccc1Sc1ccc2c(-c3c(Cl)cccc3Cl)c(=O)ncn2n1 [Compound 35] | ≥ 500 | ≥ 500 | ≥ 500 | 100 to 500 | 100 to 1000 | ≥ 500 |
| COc1ccc(-c2c(=O)ncn3nc(Sc4ccc(F)cc4)ccc23)c(Cl)c1OC [Compound 36] | ≥ 500 | ≥ 500 | ≥ 500 | ≥ 500 | ≥ 1000 | ≥ 500 |
| Nc1ccc(Cl)c(-c2c(=O)ncn3nc(Sc4ccc(Br)cc4)ccc23)c1Cl [Compound 37] | ≥ 500 | ≥ 500 | ≥ 500 | 100 to 500 | 100 to 1000 | ≥ 500 |
| O=c1ncn2nc(Sc3ccc(F)cc3Cl)ccc2c1-c1c(Cl)cccc1Cl [Compound 38] | 100 to 500 | 250 to 500 | 250 to 500 | ≤ 100 | ≤ 100 | 250 to 500 |
| O=C(CCl)Nc1ccc(-c2c(=O)ncn3nc(Sc4ccc(F)cc4)ccc23)c(Cl)c1 [Compound 49] | ≥ 500 | ≥ 500 | ≥ 500 | ≤ 100 | 100 to 1000 | ≥ 500 |
| COC(=O)c1ccccc1SC1=NN2CNC(=O)C(c3c(Cl)cccc3Cl)=C2C=C1 [Compound 101] | ≤ 100 | 250 to 500 | ≥ 500 | ≤ 100 | 100 to 1000 | ≥ 500 |
| Cc1ccccc1SC1=NN2CNC(=O)C(c3c(Cl)cccc3Cl)=C2C=C1 [Compound 102] | ≤ 100 | 250 to 500 | 250 to 500 | ≤ 100 | ≤ 100 | ≥ 500 |
| O=C1NCN2N=C(Sc3ccc(F)cc3)C=CC2=C1c1c(Cl)cccc1Cl [Compound 103] | ≤ 100 | 250 to 500 | 250 to 500 | ≤ 100 | ≤ 100 | ≥ 500 |
| COC(=O)CCc1ccc(SC2=NN3CNC(=O)C(c4c(Cl)cccc4Cl)=C3C=C2)cc1 [Compound 120] | ≥ 500 | ≥ 500 | ≥ 500 | 100 to 500 |  | ≥ 500 |
| NC(=O)C(c1cccc(-c2ccc(Cl)cc2)n1)c1c(Cl)cccc1Cl (centres unmarked) [Compound 310] | ≥ 500 |  |  | ≥ 500 | 100 to 1000 |  |

| SMILES | IC50 [1] [nM] | IC50 [2] [nM] | IC50 [3] [nM] | IC50 [4] [nM] | IC50 [5] [nM] | IC50 [6] [nM] |
| --- | --- | --- | --- | --- | --- | --- |
| Cc1ccc(-c2cccc(C(C(N)=O)c3c(Cl)cccc3Cl)n2)cc1 (centres unmarked) [Compound 311] | ≥ 500 |  |  | ≥ 500 | 100 to 1000 |  |
| NC(=O)C(c1cccc(-c2ccc(F)c(Cl)c2)n1)c1c(Cl)cccc1Cl (centres unmarked) [Compound 313] | ≥ 500 |  |  | ≥ 500 | 100 to 1000 |  |
| NC(=O)C(c1cccc(-c2cccs2)n1)c1c(Cl)cccc1Cl (centres unmarked) [Compound 317] | ≥ 500 |  |  | ≥ 500 | ≥ 1000 |  |
| NC(=O)C(c1cccc(-c2cccc(Cl)c2)n1)c1c(Cl)cccc1Cl (centres unmarked) [Compound 320] | 100 to 500 |  |  | 100 to 500 | ≤ 100 |  |
| COc1cccc(-c2cccc(C(C(N)=O)c3c(Cl)cccc3Cl)n2)c1 (centres unmarked) [Compound 322] | ≥ 500 |  |  | ≥ 500 | 100 to 1000 |  |
| NC(=O)C(c1cccc(-c2cccc(F)c2)n1)c1c(Cl)cccc1Cl (centres unmarked) [Compound 323] | 100 to 500 |  |  | 100 to 500 | 100 to 1000 |  |
| COc1ccccc1-c1cccc(C(C(N)=O)c2c(Cl)cccc2Cl)n1 (centres unmarked) [Compound 324] | ≥ 500 |  |  | 100 to 500 | 100 to 1000 |  |
| NC(=O)C(c1cccc(-c2ccc(F)c(Cl)c2)n1)c1c(F)cccc1Cl (centres unmarked) [Compound 333] | ≥ 500 |  |  | ≥ 500 | 100 to 1000 |  |
| NC(=O)C(c1cccc(-c2cccc(Cl)c2)n1)c1c(F)cccc1Cl (centres unmarked) [Compound 341] | 100 to 500 |  |  | 100 to 500 | 100 to 1000 |  |
| NC(=O)C(c1cccc(-c2ccccc2CN2CCCC2)n1)c1c(Cl)cccc1Cl (centres unmarked) [Compound 350] | ≥ 500 |  |  | 100 to 500 | ≥ 1000 |  |
| NC(=O)C(c1cccc(-c2ccccc2CNCCO)n1)c1c(Cl)cccc1Cl (centres unmarked) [Compound 351] | ≥ 500 |  |  | ≥ 500 | ≥ 1000 |  |
| NC(=O)C(c1cccc(-c2cccc(C(F)(F)F)c2)n1)c1c(F)cccc1Cl (centres unmarked) [Compound 353] | ≥ 500 |  |  | ≥ 500 | 100 to 1000 |  |
| NC(=O)C(c1cccc(-c2ccccc2CNc2ccccc2)n1)c1c(Cl)cccc1Cl (centres unmarked) [Compound 358] | ≥ 500 |  |  | ≥ 500 | 100 to 1000 |  |
| Cc1cc(F)ccc1-c1cccc(C(C(N)=O)c2c(F)cccc2Cl)n1 (centres unmarked) [Compound 361] | ≥ 500 |  |  | 100 to 500 | 100 to 1000 |  |
| Cc1ccccc1-c1cccc(N(C(N)=O)c2c(C)cccc2C)n1 [Compound 405] | 100 to 500 |  |  | ≤ 100 | ≤ 100 |  |
| Cc1ccc(-c2cccc(N(C(N)=O)c3c(Cl)cccc3Cl)n2)cc1 [Compound 406] | ≥ 500 |  |  | 100 to 500 | 100 to 1000 |  |
| Cc1cccc(C)c1N(C(N)=O)c1cccc(-c2ccc(F)cc2)n1 [Compound 407] | ≥ 500 |  |  | 100 to 500 | 100 to 1000 |  |
| NC(=O)N(c1cccc(-c2ccc(Cl)cc2)n1)c1c(Cl)cccc1Cl [Compound 408] | 100 to 500 |  |  | ≤ 100 | ≤ 100 |  |
